Test: The ability to displace [3H]colchicine binding to rat brain tubulin protein
Parameters: concentration or dose not given beside the values
Details: concentration not given here
With `COc1cc2c(c(OC)c1OC)-c1ccc(OC)c(=O)cc1[C@@H](NC(=O)COC(=O)[C@@H]1CC(C)(C)N([O])C1(C)C)CC2` the inhibition was 72%.
In the case of `COc1cc2c(c(OC)c1OC)-c1ccc(OC)c(=O)cc1[C@@H](NC(=O)[C@H]1CC(C)(C)N([O])C1(C)C)CC2`, the inhibition is reported as 0%.
In the case of `COc1cc2c(c(OC)c1OC)-c1ccc(OC)c(=O)cc1[C@@H](NC(=O)COC(=O)C1CC(C)(C)N([O])C1(C)C)CC2` (stereo partly specified), the inhibition is reported as 60%.
With `COc1cc2c(c(OC)c1OC)-c1ccc(OC)c(=O)cc1[C@@H](NC(=O)COC(=O)[C@H]1CC(C)(C)N([O])C1(C)C)CC2` the inhibition was 65%.
For `COc1cc2c(c(OC)c1OC)-c1ccc(OC)c(=O)cc1[C@@H](NC(=O)[C@@H]1CC(C)(C)N([O])C1(C)C)CC2`, the inhibition was 0%.
In the case of `COc1c(COC(=O)C2CC(C)(C)N([O])C2(C)C)c2c(c(OC)c1OC)-c1ccc(OC)c(=O)cc1[C@@H](NC(C)=O)CC2` (stereo partly specified), the inhibition is reported as 24%.
